Experimental findings from BindingDB's records for doi:10.1021/jm00039a015 (Abbott Laboratories, 1994) are described below.

For this experiment, the target named is Platelet-activating factor receptor (Oryctolagus cuniculus). Briefly: Antagonist activity against platelet activating factor (PAF) receptor in rabbit platelet membranes using [3H]C18-PAF as radioligand.
For `O=C([C@@H]1CSC(c2cccnc2)N1)n1ccc2cccc(OCc3ccccc3)c21` (stereo partly drawn) [(7-Benzyloxy-indol-1-yl)-((R)-2-pyridin-3-yl-thiazolidin-4-yl)-methanone; compound with oxalic acid], the affinity, expressed as Ki, was 385 nM.

The molecule `Cc1[nH]c2cc(OCc3ccccc3)ccc2c1C(=O)[C@@H]1CSC(c2cccnc2)N1` (stereo partly drawn) [(6-Benzyloxy-2-methyl-1H-indol-3-yl)-((R)-2-pyridin-3-yl-thiazolidin-4-yl)-methanone] yielded a Ki of 16 nM.

Molecule `O=C(c1c[nH]c2ccccc12)[C@@H]1CS[C@@H](c2cccnc2)N1C(=O)C(F)(F)F` displayed a Ki of 7100 nM.

With `CC(C)(C)OC(=O)n1cc(C(=O)[C@@H]2CSC(c3cccnc3)N2)c2ccc(OCc3ccccc3)cc21` (stereo partly drawn) [6-Benzyloxy-3-((R)-2-pyridin-3-yl-thiazolidine-4-carbonyl)-indole-1-carboxylic acid tert-butyl ester], the Ki is 1 nM.

For `CN(C)C(=O)n1cc(C(=O)[C@@H]2CSC(c3cccnc3)N2)c2cccc(OCc3ccccc3)c21` (stereo partly drawn) [7-Benzyloxy-3-((R)-2-pyridin-3-yl-thiazolidine-4-carbonyl)-indole-1-carboxylic acid dimethylamide], the Ki worked out at 14 nM.

As for `COc1cc(C(=O)c2cccc(NC(=O)[C@@H]3CSC(c4cccnc4)N3)c2)cc(OC)c1OC` (stereo partly drawn) [(R)-2-Pyridin-3-yl-thiazolidine-4-carboxylic acid [3-(3,4,5-trimethoxy-benzoyl)-phenyl]-amide], the inhibitory constant (Ki) is 1.6 nM.

As to `CCS(=O)(=O)n1cc(C(=O)[C@@H]2CSC(c3cccnc3)N2)c2ccc(OCc3ccccc3)cc21` (stereo partly drawn) [(6-Benzyloxy-1-ethanesulfonyl-1H-indol-3-yl)-((R)-2-pyridin-3-yl-thiazolidin-4-yl)-methanone], the affinity corresponds to a Ki of 8.1 nM.

In turn, `O=C(c1ccccc1)c1cccc(NC(=O)[C@@H]2CSC(c3cccnc3)N2)c1` (stereo partly drawn) [(R)-2-Pyridin-3-yl-thiazolidine-4-carboxylic acid (3-benzoyl-phenyl)-amide] gave an inhibitory constant (Ki) of 7.7 nM.

Consider `Cc1ccc2[nH]c(C)c(C(=O)[C@@H]3CSC(c4cccnc4)N3)c2c1` (stereo partly drawn) [(2,5-Dimethyl-1H-indol-3-yl)-((R)-2-pyridin-3-yl-thiazolidin-4-yl)-methanone], for which the affinity corresponds to a Ki of 33 nM.

Molecule `Cc1ccc2c(c1)c(C(=O)[C@@H]1CSC(c3cccnc3)N1)c(C)n2C(=O)N1CCOCC1` (stereo partly drawn) [[2,5-Dimethyl-3-((R)-2-pyridin-3-yl-thiazolidine-4-carbonyl)-indol-1-yl]-morpholin-4-yl-methanone] had a Ki of 36 nM.

`O=C([C@@H]1CSC(c2cccnc2)N1)n1ccc2ccc(OCc3ccccc3)cc21` (stereo partly drawn) [(6-Benzyloxy-indol-1-yl)-((R)-2-pyridin-3-yl-thiazolidin-4-yl)-methanone]: the Ki came to 52 nM.

Consider `Cc1nnc2n1-c1sc3c(c1C(c1ccccc1Cl)=NC2)CC(C(=O)N1CCOCC1)C3` (stereo not given) [6-(2-chlorophenyl)-1-methyl-8,9-dihydro-4H,7H-cyclopenta[4,5]thieno[3,2-f][1,2,4]triazolo[4,3-a][1,4]diazepin-9-yl-1,4-oxazinan-4-ylmethanone (WEB 2170)], for which the Ki was 29 nM.

`O=C(c1cn(C(=O)c2ccc(Cl)cc2)c2ccccc12)[C@@H]1CSC(c2cccnc2)N1` (stereo partly drawn) [(4-Chloro-phenyl)-[3-((R)-2-pyridin-3-yl-thiazolidine-4-carbonyl)-indol-1-yl]-methanone] yielded a Ki of 3.4 nM.

Molecule `O=C(c1c[nH]c2cc(OCc3ccccc3)ccc12)[C@@H]1CSC(c2cccnc2)N1` (stereo partly drawn) [(6-Benzyloxy-1H-indol-3-yl)-((R)-2-pyridin-3-yl-thiazolidin-4-yl)-methanone] had a Ki of 1.6 nM.

`CN(C)C(=O)n1cc(C(=O)[C@@H]2CSC(c3cccnc3)N2)c2ccc(C#Cc3ccccc3)cc21` (stereo partly drawn) [6-Phenylethynyl-3-((R)-2-pyridin-3-yl-thiazolidine-4-carbonyl)-indole-1-carboxylic acid dimethylamide] displayed an inhibition constant (Ki) of 1.3 nM.

Turning to `CC(C)(C)NC(=O)n1cc(C(=O)[C@@H]2CSC(c3cccnc3)N2)c2ccccc21` (stereo partly drawn) [3-((R)-2-Pyridin-3-yl-thiazolidine-4-carbonyl)-indole-1-carboxylic acid tert-butylamide], the Ki stood at 8.8 nM.

Molecule `O=C(c1cn(C(=O)N2CCOCC2)c2ccccc12)[C@@H]1CSC(c2cccnc2)N1` (stereo partly drawn) [Morpholin-4-yl-[3-((R)-2-pyridin-3-yl-thiazolidine-4-carbonyl)-indol-1-yl]-methanone] registered a Ki of 1.5 nM.

Take `CN(C)C(=O)n1cc(C(=O)[C@@H]2CSC(c3cccnc3)N2)c2ccccc21` (stereo partly drawn) [3-((R)-2-Pyridin-3-yl-thiazolidine-4-carbonyl)-indole-1-carboxylic acid dimethylamide]: the affinity corresponds to a Ki of 0.8 nM.

Molecule `CN(C)C(=O)n1cc(C(=O)[C@@H]2CSC(c3cccnc3)N2)c2ccc(Cl)cc21` (stereo partly drawn) [6-Chloro-3-((R)-2-pyridin-3-yl-thiazolidine-4-carbonyl)-indole-1-carboxylic acid dimethylamide] had an inhibitory constant (Ki) of 1 nM.

As to `Cc1ccc2c(c1)c(C(=O)[C@@H]1CSC(c3cccnc3)N1)c(C)n2C(=O)N(C)C` (stereo not given in full) [2,5-Dimethyl-3-(2-pyridin-3-yl-thiazolidine-4-carbonyl)-indole-1-carboxylic acid dimethylamide], the Ki was found to be 13 nM.

`CN(C)C(=O)n1cc(C(=O)[C@@H]2CSC(c3cccnc3)N2)c2ccc(Br)cc21` (stereo partly drawn) [6-Bromo-3-((R)-2-pyridin-3-yl-thiazolidine-4-carbonyl)-indole-1-carboxylic acid dimethylamide] returned a Ki of 0.6 nM.

`CN(C)C(=O)n1cc(C(=O)[C@@H]2CSC(c3cccnc3)N2)c2ccc(OCc3ccccc3)cc21` (stereo partly drawn) [6-Benzyloxy-3-((R)-2-pyridin-3-yl-thiazolidine-4-carbonyl)-indole-1-carboxylic acid dimethylamide; compound with oxalic acid] had a Ki of 1.4 nM.

On to `O=C(c1cn(C(=O)N2CCOCC2)c2cc(OCc3ccccc3)ccc12)[C@@H]1CSC(c2cccnc2)N1` (stereo partly drawn) [[6-Benzyloxy-3-((R)-2-pyridin-3-yl-thiazolidine-4-carbonyl)-indol-1-yl]-morpholin-4-yl-methanone], for which the Ki came to 10 nM.

`O=C(O)CCn1cc(C(=O)[C@@H]2CSC(c3cccnc3)N2)c2ccccc21` (stereo partly drawn) [3-[3-((R)-2-Pyridin-3-yl-thiazolidine-4-carbonyl)-indol-1-yl]-propionic acid] came in with an inhibition constant Ki of 25 nM.

`COCCOc1ccc2c(C(=O)[C@@H]3CSC(c4cccnc4)N3)cn(C(=O)N(C)C)c2c1` (stereo partly drawn) [6-(2-Methoxy-ethoxy)-3-((R)-2-pyridin-3-yl-thiazolidine-4-carbonyl)-indole-1-carboxylic acid dimethylamide] showed an inhibition constant (Ki) of 3 nM.

`CN(C)C(=O)n1cc(C(=O)[C@@H]2CSC(c3cccnc3)N2)c2ccc(OCc3ccc(F)cc3)cc21` (stereo partly drawn) [6-(4-Fluoro-benzyloxy)-3-((R)-2-pyridin-3-yl-thiazolidine-4-carbonyl)-indole-1-carboxylic acid dimethylamide] registered a Ki of 1.8 nM.

`O=C(c1ccccc1)c1ccc2ccn(C(=O)[C@@H]3CSC(c4cccnc4)N3)c2c1` (stereo partly drawn) [(6-Benzoyl-indol-1-yl)-((R)-2-pyridin-3-yl-thiazolidin-4-yl)-methanone]: the affinity, expressed as Ki, was 95 nM.

The molecule `COc1cc2[nH]cc(C(=O)[C@@H]3CSC(c4cccnc4)N3)c2cc1OC` (stereo partly drawn) [(5,6-Dimethoxy-1H-indol-3-yl)-((R)-2-pyridin-3-yl-thiazolidin-4-yl)-methanone] gave an inhibitory constant (Ki) of 87 nM.

On to `O=C(c1c[nH]c2cc(OCc3cccnc3)ccc12)[C@@H]1CSC(c2cccnc2)N1` (stereo partly drawn) [[6-(Pyridin-3-ylmethoxy)-1H-indol-3-yl]-((R)-2-pyridin-3-yl-thiazolidin-4-yl)-methanone], for which the affinity corresponds to a Ki of 37 nM.

In the case of `CC(C)(C)OC(=O)N1C(c2cccnc2)SC[C@H]1C(=O)c1c[nH]c2ccccc12` (stereo partly drawn) [(R)-4-(1H-Indole-3-carbonyl)-2-pyridin-3-yl-thiazolidine-3-carboxylic acid tert-butyl ester], the affinity, expressed as Ki, was 9750 nM.

In turn, `CN(C(=O)n1cc(C(=O)[C@@H]2CSC(c3cccnc3)N2)c2ccccc21)c1ccccc1` (stereo partly drawn) [3-((R)-2-Pyridin-3-yl-thiazolidine-4-carbonyl)-indole-1-carboxylic acid methyl-phenyl-amide] had a Ki of 31 nM.

As to `COc1cc2c(C(=O)[C@@H]3CSC(c4cccnc4)N3)cn(C(=O)N(C)C)c2cc1OC` (stereo partly drawn) [5,6-Dimethoxy-3-((R)-2-pyridin-3-yl-thiazolidine-4-carbonyl)-indole-1-carboxylic acid dimethylamide], the inhibitory constant (Ki) is 10 nM.

For the molecule `Cc1ccc2c(C(=O)[C@@H]3CSC(c4cccnc4)N3)c[nH]c2c1` (stereo partly drawn) [(6-Methyl-1H-indol-3-yl)-((R)-2-pyridin-3-yl-thiazolidin-4-yl)-methanone], the affinity corresponds to a Ki of 3.4 nM.

Regarding `Cc1cccc2c(C(=O)[C@@H]3CSC(c4cccnc4)N3)c[nH]c12` (stereo partly drawn) [(7-Methyl-1H-indol-3-yl)-((R)-2-pyridin-3-yl-thiazolidin-4-yl)-methanone], affinity was put at a Ki of 6.5 nM.

`CC(=O)N1C(c2cccnc2)SC[C@H]1C(=O)c1c[nH]c2ccccc12` (stereo partly drawn) [1-[(R)-4-(1H-Indole-3-carbonyl)-2-pyridin-3-yl-thiazolidin-3-yl]-ethanone] displayed a Ki of 17800 nM.

Turning to `O=C(c1c[nH]c2ccccc12)[C@@H]1CS[C@H](c2cccnc2)N1C(=O)C(F)(F)F`, the affinity, expressed as Ki, was 1640 nM.

As to `Cc1ccc2c(c1)c(C(=O)[C@@H]1CSC(c3cccnc3)N1)c(C)n2C(=O)OC(C)(C)C` (stereo partly drawn) [2,5-Dimethyl-3-((R)-2-pyridin-3-yl-thiazolidine-4-carbonyl)-indole-1-carboxylic acid tert-butyl ester; compound with oxalic acid], the Ki turned out to be 77 nM.

Regarding `CCn1cc(C(=O)[C@@H]2CSC(c3cccnc3)N2)c2ccccc21` (stereo partly drawn) [(1-Ethyl-1H-indol-3-yl)-((R)-2-pyridin-3-yl-thiazolidin-4-yl)-methanone], the affinity, expressed as Ki, was 5.4 nM.

`Cc1c(C(=O)[C@@H]2CSC(c3cccnc3)N2)c2ccccc2n1C(=O)N1CCOCC1` (stereo partly drawn) [[2-Methyl-3-((R)-2-pyridin-3-yl-thiazolidine-4-carbonyl)-indol-1-yl]-morpholin-4-yl-methanone] came in with an inhibitory constant (Ki) of 88 nM.

Consider `CCOC(=O)n1cc(C(=O)[C@@H]2CSC(c3cccnc3)N2)c2ccccc21` (stereo partly drawn) [3-((R)-2-Pyridin-3-yl-thiazolidine-4-carbonyl)-indole-1-carboxylic acid ethyl ester], for which the inhibition constant (Ki) worked out at 4.4 nM.
